Test results: patent US11542271B2, “Fused heteroaromatic-aniline compounds for treatment of dermal disorders” (NFlection Therapeutics, Inc., priority 2017, dated 2023)
pIC50: −log10 of the molar value. Entries after “also recorded” stand apart in the source; their conditions may differ.

Assays:
[1] = tested on: p-ERK in human cutaneous neurofibroma explants; assay: Human cutaneous neurofibroma explant p-ERK suppression (Biological Example 7); type: cell-based; details: topical gel formulation (1%), harvested at 4 hours, vs vehicle gel
Excerpt: The primary objective was to assess the efficacy of a topically-formulated compound described herein in suppressing p-ERK, a downstream biomarker of RAS/MAPK signaling in neurofibroma explants. The secondary objectives was to assess permeability (where the compound was applied topically) of neurofibroma explants treated with a compound described herein.
Primary dermal neurofibromas or cutaneous neurofibromas were obtained from patients with clinical or genetic diagnoses of NF1. Discarded human neurofibromas samples were obtained from the Stanford Surgery Clinic, using an approved human subjects protocol (Stanford IRB #18325). Specimens were identified under the direction of the Principal Investigator and placed in cell proliferation media (DMEM/F12 containing penicillin/streptomycin (0.1%); fungizone (40 μg/mL); B27 (without vitamin A).
Specimens were identified under the direction of the Principal Investigator
Specimens were chopped into 2 mm fragments and placed in 24-well plates containing cell proliferation media (DMEM/F12 containing penicillin/streptomycin (0.1%); fungizone (40 μg/mL); B27 (without vitamin A) and submerged in media with drug. For topical gel application, samples were placed in 96 well plates with epidermal surface exposed to air. […]

MAP2K1 (MEK1) = target: T1, MAP2K1 (MEK1) (Homo sapiens, UniProt Q02750); assay: MEK Inhibition Assay (Biological Example 1b, Z'-LYTE); details: Biological Example 1b (compounds 1, 3, 5, 7-8); read-out: Assay 1: biochemical MEK IC50
T1 construct: purchased ThermoFisher
T1 sequence (Q02750 whole entry): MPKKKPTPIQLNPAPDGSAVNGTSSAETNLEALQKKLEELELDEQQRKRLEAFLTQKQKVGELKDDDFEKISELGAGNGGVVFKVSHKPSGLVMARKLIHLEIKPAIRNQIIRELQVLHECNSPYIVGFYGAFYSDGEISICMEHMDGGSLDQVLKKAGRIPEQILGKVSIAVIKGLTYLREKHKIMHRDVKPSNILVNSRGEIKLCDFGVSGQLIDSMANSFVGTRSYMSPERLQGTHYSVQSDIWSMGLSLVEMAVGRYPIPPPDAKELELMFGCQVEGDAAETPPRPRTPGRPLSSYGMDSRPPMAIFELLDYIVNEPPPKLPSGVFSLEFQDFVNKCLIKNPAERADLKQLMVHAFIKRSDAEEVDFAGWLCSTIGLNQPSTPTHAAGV
Procedure: MEK1 inhibitory activity of compounds were tested using the following procedure (protocol available at thermofisher.com/content/dam/LifeTech/migration/files/drug-discovery/pdfs.par.60256.file.dat/20130430%20ssbk%20customer%20protocol%20and%20assay%20conditions.pdf). The Z′-LYTE biochemical assay (ThermoFisher) employs a fluorescence-based, coupled-enzyme format and is based on the differential sensitivity of phosphorylated and non-phosphorylated peptides to proteolytic cleavage.
Test compounds in 100% DMSO were screened in 1% DMSO (final) in the well. For 10 point titrations, 3-fold serial dilutions are conducted from the starting concentration of 30 μM.
After the 1 hour incubation, 5 μL of a 1:1024 dilution of Development Reagent A (available from Invitrogen, catalog no. PV3295) was added.
ATP solutions were diluted to a 4× working concentration in Kinase Buffer (50 mM HEPES pH 7.5, 0.01% BRIJ-35, 10 mM MgCl2, 1 mM EGTA). ATP Km apparent was previously determined using a Z′-LYTE assay. The Development Reagent was diluted in Development Buffer (available from Invitrogen, catalog no. P3127).
Assay Protocol: 2.5 μL of 4× test compound or 100 nL of 100× Test Compound plus 2.4 μL Kinase Buffer, 5 μL of the 2× Peptide/Kinase Mixture, 2.5 μL of 4×ATP Solution were added to the plates and placed on a shake plate for 30-seconds. The kinase reaction was allowed to proceed for 60-minute at room temperature, before 5 μL of Development Reagent Solution was added, and the mixture agitated for 30-seconds on a shake plate. The mixture was incubated for 60-minute at room temperature. Fluorescence was measured using a plate reader and the data were analyzed.
This control yielded 100% cleaved peptide in the Development Reaction. The 100% Phosphorylation Control, which consisted of a synthetically phosphorylated peptide of the same sequence as the peptide substrate, was designed to allow for the calculation of percent phosphorylation. This control yielded a very low percentage of cleaved peptide in the Development Reaction. The 0% Phosphorylation and 100% Phosphorylation Controls allow for the calculation of the percent phosphorylation achieved in a specific reaction well.
The minimum emission ratio in a screen was established by the 0% Inhibition Control, which contained active kinase. This control was designed to produce a 10-50% phosphorylated peptide in the Kinase Reaction. Cascade assays may produce up to 70% phosphorylated peptide.
A known inhibitor control standard curve, 10 point titration, was run for each individual kinase on the same plate as the kinase to ensure the kinase was inhibited within an expected IC50 range previously determined.
The following controls are prepared for each concentration of Test Compound assayed. […] The expected value for a non-interfering compound should be 100%. Any value outside of 90% to 110% was flagged. […] The expected value for a non-fluorescence compound should be 0%. Any value >20% was flagged.
The data in Table A was calculated. XLfit from IDBS was used. The dose response curve was curve fit to model number 205 (sigmoidal dose-response model).

[2] = S9 Stability Assay, human liver S9 fraction; type: in vitro ADME
Procedure: Compounds were assessed for metabolic stability in human skin by assessing their rate of disappearance from human S9 skin fraction. Similarly, compounds were assessed for metabolic stability in human liver by assessing their rate of disappearance from human S9 liver fraction. The protocol below can be used to assess the difference between skin and hepatic metabolism.
The assay was carried out in 96-well microtiter plates at 37° C. Reaction mixtures (25 μL) contained a final concentration of 1 μM test compound, 2 mg/mL liver or skin S9 protein, and 1 mM NADPH in buffer (100 mM potassium phosphate, pH 7.4 buffer with 1 mM EDTA, 3 mM MgCl2). At each of the time points (0, 15, 30, and 60 minutes), 150 μL of quench solution (100% acetonitrile with 0.1% formic acid) with internal standard was transferred to each well. Besides the zero minute controls, mixtures containing the same components except the NADPH were also prepared as the negative control. Verapamil or testosterone was included as a positive control to verify assay performance. Plates were sealed and centrifuged at 4° C. for 15 minutes at 4000 rpm. The supernatant was transferred to fresh plates for LC/MS/MS analysis.
All samples were analyzed on LC/MS/MS using an AB Sciex API 4000 instrument, coupled to a Shimadzu LC-20AD LC Pump system. Analytical samples were separated using a Waters Atlantis T3 dC18 reverse phase HPLC column (20 mm×2.1 mm) at a flow rate of 0.5 mL/min. The mobile phase consisted of 0.1% formic acid in water (solvent A) and 0.1% formic acid in 100% acetonitrile (solvent B).
The extent of metabolism was calculated as the disappearance of the test compound, compared to the 0-min control reaction incubations. Initial rates were calculated for the compound concentration and used to determine t1/2 values and subsequently, the intrinsic clearance, CLint=(0.693) (1/t1/2 (min)) (mL incubation/mg of S9 protein).

C57BL/6J mice = assay: In vivo mouse model of skin and systemic toxicity (Biological Example 6b); details: topically applied 1%, twice daily 5 days per week
Procedure: These mice are also shaved weekly.
Biological Example 6b was carried out with the following arms: oral vehicle, oral Trametinib, topical vehicle, and topical Trametinib (1%).

pIC50 (MAP2K1 (MEK1))	Assay 5: human liver S9 intrinsic clearance value (μL/min/mg protein) ([2]; human liver S9)	half-life at 1 μM ([2]; pH 7.4, Table 1, human liver S9 fraction, 1 μM test compound, 2 mg/mL S9 protein, NADPH, read-out: Liver S9 t1/2)	microsomal CLint at 1 μM ([2]; pH 7.4, Table 1, human liver S9 fraction, read-out: CLint (μL/min/mg protein))	Structure (SMILES)	p-ERK in human cutaneous neurofibroma explants [1]	toxicity of topical application (C57BL/6J mice)
6.59	57.15 μL/min/mg protein	6 min	57.1 µL/min/mg	O=C(NOCCO)c1c(Nc2ccc(I)cc2F)sc2ncc(F)cc12 [Ex. 8, 2-((2-Fluoro-4-iodophenyl)amino)-N-(2-hydroxyethoxy)-5-fluorothieno[2,3-b]pyridine-3-carboxamide]	suppression of p-ERK	
				CC(=O)Nc1cccc(-n2c(=O)n(C3CC3)c(=O)c3c(Nc4ccc(I)cc4F)n(C)c(=O)c(C)c32)c1 [trametinib]		found dead, or had to be sacrificed due to unacceptable weight loss; also recorded: significant toxicity
